PubChem BioAssay (NCI)
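Five concentrations, 48 hours, 96-well plates. GI50 = concentration required for 50% inhibition of growth. TGI is the concentration that stops growth completely.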

Columns and labels:
Assay in all cases: DTP human tumour cell line panel, 48 h
KM12 colon = system: KM12 colon
HCT-15 colon = system: HCT-15 colon
COLO 205 colon = system: COLO 205 colon
M14 melanoma = system: M14 melanoma
SW-620 colon = system: SW-620 colon
UACC-62 melanoma = system: UACC-62 melanoma
HOP-92 NSCLC = system: HOP-92 NSCLC
OVCAR-4 ovarian = system: OVCAR-4 ovarian
RXF 393 renal = system: RXF 393 renal
SR leukemia = system: SR leukemia
TK-10 renal = system: TK-10 renal
HS 578T breast = system: HS 578T breast
K-562 leukemia = system: K-562 leukemia
786-0 renal = system: 786-0 renal
OVCAR-3 ovarian = system: OVCAR-3 ovarian
SK-MEL-5 melanoma = system: SK-MEL-5 melanoma
A498 renal = system: A498 renal
CAKI-1 renal = system: CAKI-1 renal
A549 NSCLC = system: A549 NSCLC
OVCAR-8 ovarian = system: OVCAR-8 ovarian
SF-295 CNS = system: SF-295 CNS
NCI-H460 lung = system: NCI-H460 lung
HCC-2998 colon = system: HCC-2998 colon
HT29 colon = system: HT29 colon
SNB-19 CNS = system: SNB-19 CNS
ACHN renal = system: ACHN renal
CCRF-CEM leukemia = system: CCRF-CEM leukemia
NCI-H23 lung = system: NCI-H23 lung
SN12C renal = system: SN12C renal
PC-3 prostate = system: PC-3 prostate
MCF7 breast = system: MCF7 breast
U251 CNS = system: U251 CNS
HL-60(TB) leukemia = system: HL-60(TB) leukemia
MDA-MB-435 = system: MDA-MB-435
OVCAR-5 ovarian = system: OVCAR-5 ovarian
SF-268 CNS = system: SF-268 CNS
EKVX NSCLC = system: EKVX NSCLC
RPMI-8226 leukemia = system: RPMI-8226 leukemia
BT-549 breast = system: BT-549 breast
NCI-H226 lung = system: NCI-H226 lung
HCT-116 colon = system: HCT-116 colon
NCI-H522 lung = system: NCI-H522 lung
SK-MEL-28 melanoma = system: SK-MEL-28 melanoma
HOP-62 NSCLC = system: HOP-62 NSCLC
DU-145 prostate = system: DU-145 prostate
T-47D breast = system: T-47D breast
NCI/ADR-RES ovarian = system: NCI/ADR-RES ovarian
IGROV1 ovarian = system: IGROV1 ovarian
SK-OV-3 ovarian = system: SK-OV-3 ovarian
MOLT-4 leukemia = system: MOLT-4 leukemia
MDA-MB-468 breast = system: MDA-MB-468 breast
LOX IMVI melanoma = system: LOX IMVI melanoma
SF-539 CNS = system: SF-539 CNS
MALME-3M melanoma = system: MALME-3M melanoma

CC(C)C[C@H](NC(=O)CNC(=O)C[C@H]1O[C@@H]2OC3(C)CC[C@H]4[C@H](C)CC[C@@H]([C@H]1C)[C@@]24O3)B(O)O
GI50 (KM12 colon): 2.71 µM | TGI (KM12 colon): 7.32 µM | GI50 (HCT-15 colon): 6.42 µM | TGI (HCT-15 colon): 24.1 µM | GI50 (COLO 205 colon): 4.79 µM | TGI (COLO 205 colon): 22.2 µM | GI50 (M14 melanoma): 1.91 µM | TGI (M14 melanoma): 4.82 µM | GI50 (SW-620 colon): 2.78 µM | TGI (SW-620 colon): 17.8 µM | GI50 (UACC-62 melanoma): 1.92 µM | TGI (UACC-62 melanoma): 4.61 µM | GI50 (HOP-92 NSCLC): 3.12 µM | TGI (HOP-92 NSCLC): 9.51 µM | GI50 (OVCAR-4 ovarian): 5.64 µM | TGI (OVCAR-4 ovarian): > 100 µM | GI50 (RXF 393 renal): 0.738 µM | TGI (RXF 393 renal): 2.18 µM | GI50 (SR leukemia): 0.303 µM | TGI (SR leukemia): 1.5 µM | GI50 (TK-10 renal): 3.01 µM | TGI (TK-10 renal): 20.1 µM | GI50 (HS 578T breast): 3.5 µM | TGI (HS 578T breast): 70.6 µM | GI50 (K-562 leukemia): 3.69 µM | TGI (K-562 leukemia): > 100 µM | GI50 (786-0 renal): 4.22 µM | TGI (786-0 renal): 53.6 µM | GI50 (OVCAR-3 ovarian): 1.78 µM | TGI (OVCAR-3 ovarian): 4.27 µM | GI50 (SK-MEL-5 melanoma): 1.79 µM | TGI (SK-MEL-5 melanoma): 3.67 µM | GI50 (A498 renal): 6.87 µM | TGI (A498 renal): 49 µM | GI50 (CAKI-1 renal): 16.8 µM | TGI (CAKI-1 renal): > 100 µM | GI50 (A549 NSCLC): 3.93 µM | TGI (A549 NSCLC): > 100 µM | GI50 (OVCAR-8 ovarian): 3.58 µM | TGI (OVCAR-8 ovarian): 17.6 µM | GI50 (SF-295 CNS): 2.45 µM | TGI (SF-295 CNS): 11.3 µM | GI50 (NCI-H460 lung): 4.72 µM | TGI (NCI-H460 lung): 23 µM | GI50 (HCC-2998 colon): 1.92 µM | TGI (HCC-2998 colon): 3.46 µM | GI50 (HT29 colon): 1.67 µM | TGI (HT29 colon): 4.63 µM | GI50 (SNB-19 CNS): 5.83 µM | TGI (SNB-19 CNS): > 100 µM | GI50 (ACHN renal): 3.99 µM | TGI (ACHN renal): > 100 µM | GI50 (CCRF-CEM leukemia): 0.502 µM | TGI (CCRF-CEM leukemia): 3.88 µM | GI50 (NCI-H23 lung): 3.1 µM | TGI (NCI-H23 lung): 11.8 µM | GI50 (SN12C renal): 2.98 µM | TGI (SN12C renal): 12 µM | GI50 (PC-3 prostate): 5.47 µM | TGI (PC-3 prostate): 67 µM | GI50 (MCF7 breast): 1.36 µM | TGI (MCF7 breast): 41 µM | GI50 (U251 CNS): 3.61 µM | TGI (U251 CNS): 17.6 µM | GI50 (HL-60(TB) leukemia): 0.514 µM | TGI (HL-60(TB) leukemia): 4.15 µM | GI50 (MDA-MB-435): 1.38 µM | TGI (MDA-MB-435): 3.93 µM | GI50 (OVCAR-5 ovarian): 2.53 µM | TGI (OVCAR-5 ovarian): 13.8 µM | GI50 (SF-268 CNS): 3.51 µM | TGI (SF-268 CNS): 97.5 µM | GI50 (EKVX NSCLC): 7.94 µM | TGI (EKVX NSCLC): 79.6 µM | GI50 (RPMI-8226 leukemia): 0.272 µM | TGI (RPMI-8226 leukemia): 1.38 µM | GI50 (BT-549 breast): 0.537 µM | TGI (BT-549 breast): 2.45 µM | GI50 (NCI-H226 lung): 0.645 µM | TGI (NCI-H226 lung): 2.14 µM | GI50 (HCT-116 colon): 1.46 µM | TGI (HCT-116 colon): 3.7 µM | GI50 (NCI-H522 lung): 1.63 µM | TGI (NCI-H522 lung): 3.3 µM | GI50 (SK-MEL-28 melanoma): 1.45 µM | TGI (SK-MEL-28 melanoma): 7.28 µM | GI50 (HOP-62 NSCLC): 3.89 µM | TGI (HOP-62 NSCLC): 18.4 µM | GI50 (DU-145 prostate): 13.5 µM | TGI (DU-145 prostate): > 100 µM | GI50 (T-47D breast): 2.19 µM | TGI (T-47D breast): 5.88 µM | GI50 (NCI/ADR-RES ovarian): 40.6 µM | TGI (NCI/ADR-RES ovarian): > 100 µM | GI50 (IGROV1 ovarian): 6.94 µM | TGI (IGROV1 ovarian): 34.4 µM | GI50 (SK-OV-3 ovarian): 6.45 µM | TGI (SK-OV-3 ovarian): 35.2 µM | GI50 (MOLT-4 leukemia): 0.332 µM | TGI (MOLT-4 leukemia): 1.92 µM | GI50 (MDA-MB-468 breast): 1.43 µM | TGI (MDA-MB-468 breast): 3.57 µM | GI50 (LOX IMVI melanoma): 1.44 µM | TGI (LOX IMVI melanoma): 3.14 µM | GI50 (SF-539 CNS): 1.32 µM | TGI (SF-539 CNS): 3.08 µM | GI50 (MALME-3M melanoma): 1.22 µM | TGI (MALME-3M melanoma): 4.4 µM
